Source: ChEMBL document CHEMBL1687748 (Antimicrob Agents Chemother, 2009)
Converted amounts (≈) assume the structure as drawn.

Key:
Assay type in all cases: functional
Bacillus anthracis [1] = assay: Total sensitive organism counts of toxin and capsule gene-deficient Bacillus anthracis Sterne in hollow-fiber pharmacodynamic infection model at 200 mg administered as continuous infusion by Bayesian method
Bacillus anthracis [2] = assay: Hill constant for compound-sensitive toxin and capsule gene-deficient Bacillus anthracis Sterne in hollow-fiber pharmacodynamic infection model administered for every 24 hrs
Bacillus anthracis [3] = assay: Growth rate constant for compound-sensitive toxin and capsule gene-deficient Bacillus anthracis Sterne in hollow-fiber pharmacodynamic infection model at 200 mg administered as continuous infusion by Bayesian method
Bacillus anthracis [4] = assay: Growth rate constant of spore-phase cells going to vegetative phase in toxin and capsule gene-deficient Bacillus anthracis Sterne in hollow-fiber pharmacodynamic infection model at 100 mg administered as continuous infusion by Bayesian method
Bacillus anthracis [5] = assay: Total spore counts of toxin and capsule gene-deficient Bacillus anthracis Sterne in hollow-fiber pharmacodynamic infection model at 150 mg administered as continuous infusion by Bayesian method
Bacillus anthracis [6] = assay: Growth rate constant of vegetative-phase cells going to spore phase in toxin and capsule gene-deficient Bacillus anthracis Sterne in hollow-fiber pharmacodynamic infection model at 100 mg, qd by Bayesian method
Bacillus anthracis [7] = assay: Antimicrobial activity against toxin and capsule gene-deficient Bacillus anthracis Sterne after 24 hrs by […] method
Bacillus anthracis [8] = assay: Growth rate constant of spore-phase cells going to vegetative phase in toxin and capsule gene-deficient Bacillus anthracis Sterne in hollow-fiber pharmacodynamic infection model at 200 mg administered as continuous infusion by Bayesian method
Bacillus anthracis [9] = assay: Kill rate constant for compound-sensitive toxin and capsule gene-deficient Bacillus anthracis Sterne in hollow-fiber pharmacodynamic infection model at 50 mg, qd by Bayesian method
Bacillus anthracis [10] = assay: Hill constant for compound-sensitive toxin and capsule gene-deficient Bacillus anthracis Sterne in hollow-fiber pharmacodynamic infection model at 100 mg administered as continuous infusion by Bayesian method
Bacillus anthracis [11] = assay: Total spore counts of toxin and capsule gene-deficient Bacillus anthracis Sterne in hollow-fiber pharmacodynamic infection model at 150 mg, qd by Bayesian method
Bacillus anthracis [12] = assay: Growth rate constant of spore-phase cells going to vegetative phase in toxin and capsule gene-deficient Bacillus anthracis Sterne in hollow-fiber pharmacodynamic infection model administered for every 24 hrs
Bacillus anthracis [13] = assay: Kill rate constant for compound-sensitive toxin and capsule gene-deficient Bacillus anthracis Sterne in hollow-fiber pharmacodynamic infection model administered for every 24 hrs
Bacillus anthracis [14] = assay: Growth rate constant of vegetative-phase cells going to spore phase in toxin and capsule gene-deficient Bacillus anthracis Sterne in hollow-fiber pharmacodynamic infection model at 200 mg administered as continuous infusion by Bayesian method
Bacillus anthracis [15] = assay: Hill constant for compound-sensitive toxin and capsule gene-deficient Bacillus anthracis Sterne in hollow-fiber pharmacodynamic infection model administered as continuous infusion
Bacillus anthracis [16] = assay: Total spore counts of toxin and capsule gene-deficient Bacillus anthracis Sterne in hollow-fiber pharmacodynamic infection model administered as continuous infusion
Bacillus anthracis [17] = assay: Kill rate constant for compound-sensitive toxin and capsule gene-deficient Bacillus anthracis Sterne in hollow-fiber pharmacodynamic infection model at 250 mg, qd by Bayesian method
Bacillus anthracis [18] = assay: Kill rate constant for compound-sensitive toxin and capsule gene-deficient Bacillus anthracis Sterne in hollow-fiber pharmacodynamic infection model at 200 mg administered as continuous infusion by Bayesian method
Bacillus anthracis [19] = assay: Growth rate constant of spore-phase cells going to vegetative phase in toxin and capsule gene-deficient Bacillus anthracis Sterne in hollow-fiber pharmacodynamic infection model at 250 mg administered as continuous infusion by Bayesian method
Bacillus anthracis [20] = assay: Total spore counts of toxin and capsule gene-deficient Bacillus anthracis Sterne in hollow-fiber pharmacodynamic infection model at 100 mg, qd by Bayesian method
Bacillus anthracis [21] = assay: Total sensitive organism counts of toxin and capsule gene-deficient Bacillus anthracis Sterne in hollow-fiber pharmacodynamic infection model administered as continuous infusion
Bacillus anthracis [22] = assay: Growth rate constant for compound-sensitive toxin and capsule gene-deficient Bacillus anthracis Sterne in hollow-fiber pharmacodynamic infection model at 100 mg administered as continuous infusion by Bayesian method
Bacillus anthracis [23] = assay: Total spore counts of toxin and capsule gene-deficient Bacillus anthracis Sterne in hollow-fiber pharmacodynamic infection model administered for every 24 hrs
Bacillus anthracis [24] = assay: Hill constant for compound-sensitive toxin and capsule gene-deficient Bacillus anthracis Sterne in hollow-fiber pharmacodynamic infection model at 200 mg, qd by Bayesian method
Bacillus anthracis [25] = assay: Total spore counts of toxin and capsule gene-deficient Bacillus anthracis Sterne in hollow-fiber pharmacodynamic infection model at 250 mg administered as continuous infusion by Bayesian method
Bacillus anthracis [26] = assay: Total sensitive organism counts of toxin and capsule gene-deficient Bacillus anthracis Sterne in hollow-fiber pharmacodynamic infection model at 100 mg, qd by Bayesian method
Bacillus anthracis [27] = assay: Growth rate constant of spore-phase cells going to vegetative phase in toxin and capsule gene-deficient Bacillus anthracis Sterne in hollow-fiber pharmacodynamic infection model at 100 mg, qd by Bayesian method
Bacillus anthracis [28] = assay: Growth rate constant of vegetative-phase cells going to spore phase in toxin and capsule gene-deficient Bacillus anthracis Sterne in hollow-fiber pharmacodynamic infection model at 50 mg, qd by Bayesian method
Bacillus anthracis [29] = assay: Kill rate constant for compound-sensitive toxin and capsule gene-deficient Bacillus anthracis Sterne in hollow-fiber pharmacodynamic infection model administered as continuous infusion
Bacillus anthracis [30] = assay: Growth rate constant of vegetative-phase cells going to spore phase in toxin and capsule gene-deficient Bacillus anthracis Sterne in hollow-fiber pharmacodynamic infection model administered as continuous infusion
Bacillus anthracis [31] = assay: Hill constant for compound-sensitive toxin and capsule gene-deficient Bacillus anthracis Sterne in hollow-fiber pharmacodynamic infection model at 200 mg administered as continuous infusion by Bayesian method
Bacillus anthracis [32] = assay: Total sensitive organism counts of toxin and capsule gene-deficient Bacillus anthracis Sterne in hollow-fiber pharmacodynamic infection model at 250 mg administered as continuous infusion by Bayesian method
Bacillus anthracis [33] = assay: Growth rate constant of spore-phase cells going to vegetative phase in toxin and capsule gene-deficient Bacillus anthracis Sterne in hollow-fiber pharmacodynamic infection model at 50 mg, qd by Bayesian method
Bacillus anthracis [34] = assay: Growth rate constant for compound-sensitive toxin and capsule gene-deficient Bacillus anthracis Sterne in hollow-fiber pharmacodynamic infection model at 250 mg administered as continuous infusion by Bayesian method
Bacillus anthracis [35] = assay: Total spore counts of toxin and capsule gene-deficient Bacillus anthracis Sterne in hollow-fiber pharmacodynamic infection model at 100 mg administered as continuous infusion by Bayesian method
Bacillus anthracis [36] = assay: Growth rate constant of spore-phase cells going to vegetative phase in toxin and capsule gene-deficient Bacillus anthracis Sterne in hollow-fiber pharmacodynamic infection model at 250 mg, qd by Bayesian method
Bacillus anthracis [37] = assay: Total sensitive organism counts of toxin and capsule gene-deficient Bacillus anthracis Sterne in hollow-fiber pharmacodynamic infection model at 150 mg administered as continuous infusion by Bayesian method
Bacillus anthracis [38] = assay: Growth rate constant of vegetative-phase cells going to spore phase in toxin and capsule gene-deficient Bacillus anthracis Sterne in hollow-fiber pharmacodynamic infection model at 100 mg administered as continuous infusion by Bayesian method
Bacillus anthracis [39] = assay: Growth rate constant for compound-sensitive toxin and capsule gene-deficient Bacillus anthracis Sterne in hollow-fiber pharmacodynamic infection model at 100 mg, qd by Bayesian method
Bacillus anthracis [40] = assay: Antimicrobial activity against toxin and capsule gene-deficient Bacillus anthracis Sterne after 24 hrs by macrobroth dilution method

COc1c(N2C[C@@H]3CCCN[C@@H]3C2)c(F)cc2c(=O)c(C(=O)O)cn(C3CC3)c12 [MOXIFLOXACIN]
CFU/ml (Bacillus anthracis [1]): 20600000
Activity (Bacillus anthracis [2]): 29.8 h⁻¹
Activity (Bacillus anthracis [3]): 8.25 h⁻¹
Activity (Bacillus anthracis [4]): 10.1 h⁻¹
CFU/ml (Bacillus anthracis [5]): 1880000
Activity (Bacillus anthracis [6]): 1.38 h⁻¹
MBC (Bacillus anthracis [7]): 1 µg/mL (≈ 2.49 µM)
Activity (Bacillus anthracis [8]): 6.65 h⁻¹
Activity (Bacillus anthracis [9]): 6.24 h⁻¹
Activity (Bacillus anthracis [10]): 20.9 h⁻¹
CFU/ml (Bacillus anthracis [11]): 1890000
Activity (Bacillus anthracis [12]): 7.31 h⁻¹
Activity (Bacillus anthracis [13]): 8.24 h⁻¹
Activity (Bacillus anthracis [14]): 5.3 h⁻¹
Activity (Bacillus anthracis [15]): 5.93 h⁻¹
CFU/ml (Bacillus anthracis [16]): 1880000
Activity (Bacillus anthracis [17]): 4.48 h⁻¹
Activity (Bacillus anthracis [18]): 8.28 h⁻¹
Activity (Bacillus anthracis [19]): 7.23 h⁻¹
CFU/ml (Bacillus anthracis [20]): 1900000
CFU/ml (Bacillus anthracis [21]): 38500000
Activity (Bacillus anthracis [22]): 8.26 h⁻¹
CFU/ml (Bacillus anthracis [23]): 1740000
Activity (Bacillus anthracis [24]): 1 h⁻¹
CFU/ml (Bacillus anthracis [25]): 1860000
CFU/ml (Bacillus anthracis [26]): 28000000
Activity (Bacillus anthracis [27]): 25.9 h⁻¹
Activity (Bacillus anthracis [28]): 0.0657 h⁻¹
Activity (Bacillus anthracis [29]): 6.41 h⁻¹
Activity (Bacillus anthracis [30]): 1.2 h⁻¹
Activity (Bacillus anthracis [31]): 30 h⁻¹
CFU/ml (Bacillus anthracis [32]): 21600000
Activity (Bacillus anthracis [33]): 2.91 h⁻¹
Activity (Bacillus anthracis [34]): 8.25 h⁻¹
CFU/ml (Bacillus anthracis [35]): 1860000
Activity (Bacillus anthracis [36]): 1.04 h⁻¹
CFU/ml (Bacillus anthracis [37]): 23500000
Activity (Bacillus anthracis [38]): 1.17 h⁻¹
Activity (Bacillus anthracis [39]): 6.57 h⁻¹
MIC (Bacillus anthracis [40]): 0.06 µg/mL (≈ 0.149 µM)
